Tests used:
[1] = target: Sodium channel protein type 9 subunit alpha (Homo sapiens, UniProt Q15858); experiment: Inhibition of human Nav1.7 expressed in HEK cells assessed as reduction in sodium current at -60 mV holding potential by PatchXpress platform based whole cell patch clamp electrophysiological assay; parameters: species or system HEK293
[2] = target: T1, Cytochrome P450 3A4 (Homo sapiens, UniProt P08684); experiment: (§1) Inhibition of CYP3A4 (unknown origin) using midazolam substrate at 10 uM; format: ADME; conditions: 10 µM
T1 sequence (P08684 whole entry): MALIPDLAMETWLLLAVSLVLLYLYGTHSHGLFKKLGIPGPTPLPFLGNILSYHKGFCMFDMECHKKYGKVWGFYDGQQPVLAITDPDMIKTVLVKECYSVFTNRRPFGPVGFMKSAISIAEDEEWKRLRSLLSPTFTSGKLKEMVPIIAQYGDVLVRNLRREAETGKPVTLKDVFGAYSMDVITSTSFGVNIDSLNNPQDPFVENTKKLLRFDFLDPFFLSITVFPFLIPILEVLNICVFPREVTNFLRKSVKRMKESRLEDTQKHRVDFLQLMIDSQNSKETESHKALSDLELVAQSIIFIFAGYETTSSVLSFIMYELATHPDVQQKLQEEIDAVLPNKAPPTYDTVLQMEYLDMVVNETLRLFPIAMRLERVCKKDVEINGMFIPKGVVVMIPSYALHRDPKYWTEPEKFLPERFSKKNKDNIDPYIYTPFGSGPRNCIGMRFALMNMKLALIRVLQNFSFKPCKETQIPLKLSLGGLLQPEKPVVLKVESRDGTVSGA

[3] = target: T2, Cytochrome P450 2D6 (Homo sapiens, UniProt P10635); experiment: (§2) Inhibition of CYP2D6 (unknown origin) using bufuralol substrate at 10 uM; format: ADME; conditions: 10 µM
T2 sequence (P10635 whole entry): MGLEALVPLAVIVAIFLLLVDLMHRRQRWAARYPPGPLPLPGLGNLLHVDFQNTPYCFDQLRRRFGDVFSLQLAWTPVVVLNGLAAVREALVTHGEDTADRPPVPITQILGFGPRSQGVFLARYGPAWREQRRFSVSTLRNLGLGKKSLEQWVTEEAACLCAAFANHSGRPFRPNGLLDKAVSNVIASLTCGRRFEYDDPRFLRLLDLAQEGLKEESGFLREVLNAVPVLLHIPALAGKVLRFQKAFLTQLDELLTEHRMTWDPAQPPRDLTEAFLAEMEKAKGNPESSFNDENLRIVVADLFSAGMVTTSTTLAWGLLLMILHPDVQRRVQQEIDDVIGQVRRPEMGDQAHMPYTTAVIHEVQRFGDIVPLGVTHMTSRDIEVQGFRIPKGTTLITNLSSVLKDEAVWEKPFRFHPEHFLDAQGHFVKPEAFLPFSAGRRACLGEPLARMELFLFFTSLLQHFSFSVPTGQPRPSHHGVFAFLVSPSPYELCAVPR

[4] = target: T3, Cytochrome P450 2C19 (Homo sapiens, UniProt P33261); experiment: (§3) Inhibition of CYP2C19 (unknown origin) using omeprazole substrate at 10 uM; format: ADME; conditions: 10 µM
T3 sequence (P33261 whole entry): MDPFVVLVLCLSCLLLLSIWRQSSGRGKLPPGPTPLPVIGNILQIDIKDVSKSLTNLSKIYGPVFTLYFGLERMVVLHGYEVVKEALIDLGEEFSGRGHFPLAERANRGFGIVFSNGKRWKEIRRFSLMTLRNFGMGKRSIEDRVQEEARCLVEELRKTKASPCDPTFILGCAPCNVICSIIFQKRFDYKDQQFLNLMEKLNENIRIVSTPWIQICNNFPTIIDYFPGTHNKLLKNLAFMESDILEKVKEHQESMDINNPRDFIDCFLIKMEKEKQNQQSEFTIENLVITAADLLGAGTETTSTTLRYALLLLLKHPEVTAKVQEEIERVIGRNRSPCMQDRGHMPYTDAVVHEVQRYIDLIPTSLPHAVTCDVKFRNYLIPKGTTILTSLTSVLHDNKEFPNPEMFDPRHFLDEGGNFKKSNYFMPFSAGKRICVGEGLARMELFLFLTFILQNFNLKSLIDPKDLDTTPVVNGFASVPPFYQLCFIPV

[5] = target: T1, Cytochrome P450 3A4; experiment: Inhibition of CYP3A4 (unknown origin) using midazolam substrate; format: ADME
[6] = target: T2, Cytochrome P450 2D6; experiment: Inhibition of CYP2D6 (unknown origin) using bufuralol substrate; format: ADME
[7] = target: T4, Cytochrome P450 2C9 (Homo sapiens, UniProt P11712); experiment: Inhibition of CYP2C9 (unknown origin) using diclofenac substrate; format: ADME
T4 sequence (P11712 whole entry): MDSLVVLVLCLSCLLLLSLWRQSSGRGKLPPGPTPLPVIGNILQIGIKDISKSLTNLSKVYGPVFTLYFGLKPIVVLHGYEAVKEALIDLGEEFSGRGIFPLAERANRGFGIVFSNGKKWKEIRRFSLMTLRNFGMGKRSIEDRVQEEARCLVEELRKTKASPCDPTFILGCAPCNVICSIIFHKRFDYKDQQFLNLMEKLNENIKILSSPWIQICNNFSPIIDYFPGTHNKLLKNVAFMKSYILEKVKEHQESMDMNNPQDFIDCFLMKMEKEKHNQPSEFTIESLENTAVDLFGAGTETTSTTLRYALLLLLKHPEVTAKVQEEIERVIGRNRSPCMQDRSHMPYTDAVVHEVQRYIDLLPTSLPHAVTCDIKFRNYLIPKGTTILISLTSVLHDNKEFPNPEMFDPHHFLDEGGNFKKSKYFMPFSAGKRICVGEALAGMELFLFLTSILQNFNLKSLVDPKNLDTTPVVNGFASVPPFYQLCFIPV

[8] = target: T3, Cytochrome P450 2C19; experiment: Inhibition of CYP2C19 (unknown origin) using omeprazole substrate; format: ADME
[9] = target: Sodium channel protein type 5 subunit alpha (Homo sapiens, UniProt Q14524); experiment: Inhibition of human Nav1.5 expressed in HEK cells assessed as reduction in sodium current at -60 mV holding potential by PatchXpress platform based whole cell patch clamp electrophysiological assay; parameters: species or system HEK293
[10] = target: CYP3A4 (Homo sapiens, UniProt P08684); experiment: as §1; format: ADME; conditions: probe midazolam
Sequence of CYP3A4 (P08684 whole entry): as the sequence (P08684 whole entry) above

[11] = target: CYP2D6 (Homo sapiens, UniProt P10635); experiment: as §2; format: ADME; conditions: probe bufuralol
Sequence of CYP2D6 (P10635 whole entry): as the sequence (P10635 whole entry) above

[12] = target: CYP2C9 (Homo sapiens, UniProt P11712); experiment: (§4) Inhibition of CYP2C9 (unknown origin) using diclofenac substrate at 10 uM; format: ADME; conditions: probe diclofenac
Sequence of CYP2C9 (P11712 whole entry): as the sequence (P11712 whole entry) above

[13] = target: CYP2C19 (Homo sapiens, UniProt P33261); experiment: as §3; format: ADME; conditions: probe omeprazole
Sequence of CYP2C19 (P33261 whole entry): as the sequence (P33261 whole entry) above

[14] = target: T4, Cytochrome P450 2C9; experiment: as §4; format: ADME; conditions: 10 µM
[15] = organism: Homo sapiens; experiment: Selectivity index, ratio of IC50 for human Nav1.5 to IC50 for human Nav1.7

Sequence of Sodium channel protein type 9 subunit alpha (Q15858 whole entry): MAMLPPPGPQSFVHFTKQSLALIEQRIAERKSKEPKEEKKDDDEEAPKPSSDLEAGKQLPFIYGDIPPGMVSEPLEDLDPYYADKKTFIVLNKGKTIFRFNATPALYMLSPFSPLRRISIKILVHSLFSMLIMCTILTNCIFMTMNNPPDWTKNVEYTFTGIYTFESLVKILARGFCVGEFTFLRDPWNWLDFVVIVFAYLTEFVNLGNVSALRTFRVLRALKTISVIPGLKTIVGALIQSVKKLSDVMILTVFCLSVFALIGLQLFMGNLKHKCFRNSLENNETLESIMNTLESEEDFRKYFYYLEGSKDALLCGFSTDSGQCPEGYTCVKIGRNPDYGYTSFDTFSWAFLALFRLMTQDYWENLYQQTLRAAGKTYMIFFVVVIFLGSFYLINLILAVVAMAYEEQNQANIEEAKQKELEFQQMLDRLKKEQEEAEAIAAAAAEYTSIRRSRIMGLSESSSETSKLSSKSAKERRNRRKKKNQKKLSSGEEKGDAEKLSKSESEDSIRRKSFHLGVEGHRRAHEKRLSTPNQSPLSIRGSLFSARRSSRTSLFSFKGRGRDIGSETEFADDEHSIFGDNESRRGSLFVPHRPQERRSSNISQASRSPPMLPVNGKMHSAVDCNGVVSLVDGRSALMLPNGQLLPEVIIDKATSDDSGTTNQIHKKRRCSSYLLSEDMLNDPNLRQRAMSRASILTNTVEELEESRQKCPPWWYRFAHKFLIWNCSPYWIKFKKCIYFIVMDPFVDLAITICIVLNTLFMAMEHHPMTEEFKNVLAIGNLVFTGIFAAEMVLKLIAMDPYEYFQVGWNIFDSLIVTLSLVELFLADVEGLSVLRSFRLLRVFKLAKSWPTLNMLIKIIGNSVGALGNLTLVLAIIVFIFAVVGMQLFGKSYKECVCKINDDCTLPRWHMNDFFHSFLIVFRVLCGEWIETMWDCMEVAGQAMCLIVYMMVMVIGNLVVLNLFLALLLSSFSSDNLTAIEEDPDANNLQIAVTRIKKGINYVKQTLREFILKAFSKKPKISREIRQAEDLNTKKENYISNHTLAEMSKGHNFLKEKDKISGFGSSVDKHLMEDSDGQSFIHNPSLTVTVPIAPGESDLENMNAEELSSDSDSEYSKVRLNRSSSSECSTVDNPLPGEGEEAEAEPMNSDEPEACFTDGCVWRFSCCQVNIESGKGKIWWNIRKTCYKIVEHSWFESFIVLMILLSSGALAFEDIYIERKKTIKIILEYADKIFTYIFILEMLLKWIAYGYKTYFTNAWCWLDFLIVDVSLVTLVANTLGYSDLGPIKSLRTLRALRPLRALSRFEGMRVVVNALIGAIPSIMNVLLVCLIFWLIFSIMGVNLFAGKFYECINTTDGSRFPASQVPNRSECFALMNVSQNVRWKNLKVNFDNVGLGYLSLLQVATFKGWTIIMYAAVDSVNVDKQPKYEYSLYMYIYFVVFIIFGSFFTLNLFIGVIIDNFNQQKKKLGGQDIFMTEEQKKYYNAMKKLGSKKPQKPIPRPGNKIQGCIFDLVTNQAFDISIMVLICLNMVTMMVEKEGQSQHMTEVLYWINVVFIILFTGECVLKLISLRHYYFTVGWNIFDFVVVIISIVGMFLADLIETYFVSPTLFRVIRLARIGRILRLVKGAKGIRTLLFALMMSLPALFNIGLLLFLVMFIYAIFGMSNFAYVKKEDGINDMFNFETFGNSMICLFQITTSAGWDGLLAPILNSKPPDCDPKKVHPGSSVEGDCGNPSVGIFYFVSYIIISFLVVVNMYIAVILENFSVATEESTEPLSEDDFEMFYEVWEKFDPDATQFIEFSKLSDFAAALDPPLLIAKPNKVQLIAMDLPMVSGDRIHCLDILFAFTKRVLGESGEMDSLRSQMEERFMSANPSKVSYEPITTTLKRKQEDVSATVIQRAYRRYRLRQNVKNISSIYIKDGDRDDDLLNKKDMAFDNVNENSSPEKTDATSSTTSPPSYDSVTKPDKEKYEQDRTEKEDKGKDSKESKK

SMILES	IC50 [1]	inhibition at 10 µM [10]	inhibition at 10 µM [11]	inhibition at 10 µM [12]	inhibition at 10 µM [13]	IC50 [9]	further results
O=S(=O)(Nc1ncns1)c1cc(F)c(OC[C@@H]2CNCC[C@H]2c2ccc(Cl)cc2)cc1F	59 nM	–	–	–	–	–	inhibition (INH) [2]: 96%; inhibition (INH) [3]: 82%; inhibition (INH) [4]: 84%
O=S(=O)(Nc1ncns1)c1cc(F)c(OC[C@H]2CNCC[C@H]2c2ccc(Cl)cc2)cc1F	237 nM	–	–	–	–	–	–
O=S(=O)(Nc1ncns1)c1cc(F)c(OC[C@H]2CNCC[C@@H]2c2ccc(Cl)cc2)cc1F	–	–	–	–	–	–	IC50 [5]: 150 nM; IC50 [6]: 260 nM; IC50 [7]: 630 nM; IC50 [8]: > 10000 nM
CN1CC[C@@H](c2ccc(Cl)cc2)[C@H](COc2cc(F)c(S(=O)(=O)Nc3ncns3)cc2F)C1	–	–	–	–	–	–	IC50 ([9]; hek293): > 10000 nM; inhibition (INH) [2]: 96%; inhibition (INH) [3]: 69%; inhibition (INH) [14]: 93%; inhibition (INH) [4]: 71%
CN1CC[C@H](c2ccc(Cl)cc2)[C@@H](COc2cc(F)c(S(=O)(=O)Nc3ncns3)cc2F)C1	4 nM	–	–	–	–	> 10000 nM	IC50 [5]: 140 nM; IC50 [6]: 270 nM; IC50 [7]: 880 nM; IC50 [8]: > 10000 nM
O=S(=O)(Nc1ncns1)c1cc(F)c(OC[C@@H]2CN(CCF)CC[C@H]2c2ccc(Cl)cc2)cc1F	7 nM	98%	90%	97%	96%	> 10000 nM	–
O=S(=O)(Nc1ncc(F)cn1)c1cc(F)c(OC[C@H]2CNCC[C@@H]2c2ccc(Cl)cc2)cc1F	–	–	–	–	–	> 10000 nM	IC50 [5]: > 10000 nM; IC50 [6]: > 10000 nM; IC50 [7]: > 10000 nM; IC50 [8]: > 10000 nM
O=S(=O)(Nc1ncns1)c1cc(F)c(OC[C@@H]2CNCC[C@H]2c2ccc(Cl)cc2)cc1F (racemic)	–	94%	93%	100%	75%	–	–
O=S(=O)(Nc1ncns1)c1cc(F)c(OC[C@@H]2CNCC[C@H]2c2ccc(F)cc2)cc1F (relative stereo)	6.8 nM	96%	92%	100%	97%	> 10000 nM	–
O=S(=O)(Nc1ncns1)c1cc(F)c(OC[C@H]2CNCC[C@@H]2c2ccc(F)c(F)c2)cc1F (relative stereo)	–	90%	85%	96%	74%	> 10000 nM	–
O=C1C[C@@H](c2ccc(F)cc2)[C@H](COc2cc(F)c(S(=O)(=O)Nc3ncns3)cc2F)CN1 (relative stereo)	82 nM	95%	6%	58%	64%	> 10000 nM	–
O=S(=O)(Nc1ncns1)c1cc(F)c(OC[C@@H]2CCNC[C@H]2c2ccc(F)cc2)cc1F (relative stereo)	32 nM	89%	61%	97%	69%	5900 nM	–
CN1CC[C@@H](c2ccc(Cl)cc2)[C@H](COc2cc(F)c(S(=O)(=O)Nc3ncns3)cc2F)C1 (relative stereo)	11 nM	97%	–	97%	86%	> 10000 nM	inhibition (INH) [3]: 93%
O=S(=O)(Nc1ncns1)c1cc(F)c(OC[C@@H]2CN(CC(F)F)CC[C@H]2c2ccc(Cl)cc2)cc1F (relative stereo)	38 nM	98%	61%	100%	88%	–	–
O=S(=O)(Nc1ncc(Cl)s1)c1cc(F)c(OC[C@@H]2CNCC[C@H]2c2ccc(Cl)cc2)cc1F (relative stereo)	–	11%	40%	100%	20%	–	–
O=S(=O)(Nc1cccnn1)c1cc(F)c(OC[C@@H]2CNCC[C@H]2c2ccc(Cl)cc2)cc1F (relative stereo)	171 nM	13%	37%	49%	36%	–	–

More lines, main results first:

IC50 [1]	inhibition at 10 µM [10]	inhibition at 10 µM [11]	inhibition at 10 µM [12]	inhibition at 10 µM [13]	SMILES	IC50 [9]	further results
–	94%	78%	99%	71%	O=S(=O)(Nc1ncns1)c1cc(F)c(OCC2(F)CNCCC2c2ccc(F)cc2)cc1F (stereo not given)	> 10000 nM	–
7.9 nM	95%	82%	81%	81%	O=S(=O)(Nc1ncns1)c1cc(F)c(OC[C@@H]2CNCC[C@H]2c2ccccc2)cc1F (relative stereo)	> 10000 nM	Ratio IC50 [15]: > 1000
–	96%	85%	100%	60%	O=S(=O)(Nc1ncns1)c1cc(F)c(OC[C@H]2CNCC[C@@H]2c2ccc(Cl)c(F)c2)cc1F (relative stereo)	> 10000 nM	–
13 nM	95%	81%	100%	59%	Cc1ccc([C@H]2CCNC[C@@H]2COc2cc(F)c(S(=O)(=O)Nc3ncns3)cc2F)cc1 (relative stereo)	> 10000 nM	–
50 nM	93%	97%	100%	90%	O=S(=O)(Nc1ncns1)c1cc(F)c(OC[C@@H]2CNC[C@H]2c2ccc(Cl)cc2)cc1F (relative stereo)	–	–
280 nM	99%	66%	100%	95%	O=S(=O)(Nc1ncns1)c1cc(F)c(OC[C@@H]2CCCC[C@H]2c2ccc(Cl)cc2)cc1F (relative stereo)	24700 nM	–
164 nM	98%	78%	100%	100%	CC(C)(C)OC(=O)N1CC[C@@H](c2ccc(Cl)cc2)[C@H](COc2cc(F)c(S(=O)(=O)Nc3ncns3)cc2F)C1 (relative stereo)	–	–
130 nM	97%	47%	100%	85%	O=S(=O)(Nc1ncns1)c1cc(F)c(OC[C@@H]2CN(CC(F)(F)F)CC[C@H]2c2ccc(Cl)cc2)cc1F (relative stereo)	2600 nM	–
194 nM	61%	55%	100%	73%	Cc1nsc(NS(=O)(=O)c2cc(F)c(OC[C@@H]3CNCC[C@H]3c3ccc(Cl)cc3)cc2F)n1 (relative stereo)	–	–
84 nM	30%	54%	99%	35%	O=S(=O)(Nc1nncs1)c1cc(F)c(OC[C@@H]2CNCC[C@H]2c2ccc(Cl)cc2)cc1F (relative stereo)	> 10000 nM	–
–	22%	48%	99%	42%	Cc1cnc(NS(=O)(=O)c2cc(F)c(OC[C@@H]3CNCC[C@H]3c3ccc(Cl)cc3)cc2F)s1 (relative stereo)	–	–
1890 nM	24%	38%	80%	29%	Cc1cc(NS(=O)(=O)c2cc(F)c(OC[C@@H]3CNCC[C@H]3c3ccc(Cl)cc3)cc2F)no1 (relative stereo)	–	–
71 nM	42%	50%	99%	56%	O=S(=O)(Nc1ccc(F)cn1)c1cc(F)c(OC[C@@H]2CNCC[C@H]2c2ccc(Cl)cc2)cc1F (relative stereo)	> 10000 nM	–
–	57%	94%	91%	72%	O=S(=O)(Nc1ccncn1)c1cc(F)c(OC[C@@H]2CNCC[C@H]2c2ccc(Cl)cc2)cc1F (relative stereo)	> 10000 nM	–
53 nM	12%	34%	60%	15%	O=S(=O)(Nc1ncccn1)c1cc(F)c(OC[C@@H]2CNCC[C@H]2c2ccc(Cl)cc2)cc1F (relative stereo)	> 10000 nM	–
–	25%	35%	73%	26%	O=S(=O)(Nc1ncc(F)cn1)c1cc(F)c(OC[C@@H]2CNCC[C@H]2c2ccc(Cl)cc2)cc1F (relative stereo)	> 10000 nM	–

Source: ChEMBL document CHEMBL3352194, “The discovery of benzenesulfonamide-based potent and selective inhibitors of voltage-gated sodium channel Na(v)1.7” (Bioorg Med Chem Lett, 2014)
